The term IC50 denotes the concentration that inhibits the measured activity by half.

One assay addresses T1, androgen receptor (AR) (Rattus norvegicus, UniProt P15207).
T1 construct: purchased Invitrogen, Madison, Wis
T1 sequence (P15207 651-902 limits assumed): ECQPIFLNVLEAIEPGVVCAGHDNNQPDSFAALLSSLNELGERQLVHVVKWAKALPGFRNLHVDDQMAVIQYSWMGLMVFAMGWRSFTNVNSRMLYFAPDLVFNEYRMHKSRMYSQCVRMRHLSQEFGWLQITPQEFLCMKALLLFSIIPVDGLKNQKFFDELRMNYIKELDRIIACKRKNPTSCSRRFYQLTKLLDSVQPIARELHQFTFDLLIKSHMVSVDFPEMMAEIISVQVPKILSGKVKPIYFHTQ
Put plainly: androgen receptor binding assay (fluorescence polarization, Fluormone AL Green competition).
Details: not given
The protocol:
The assay was performed as specified by the manufacturer (Invitrogen, Madison, Wis.). Briefly, 1 μl of 10 mM compound was added to 500 μl of AR screening buffer in a 1.5 ml eppendorf tube to make a 2×10^−5M stock. 10-fold serial dilutions of the test compounds were prepared ranging in concentration from 10^−5M to 10^−12M. Each dilution was added in triplicate to a black 384-microtiter plate. The test compounds will be diluted 2-fold in the final reaction. 2×AR-Fluormone™ complex was prepared with 2 nM Flourmone AL Green™ and 30 nM AR. 25 μl of 2× complex was aliquoted to each reaction well, such that the final reaction volume was 50 μl per well. Plate was sealed with a foil cover and incubated in the dark at room temperature for 4 h. Polarization values for each well were measured. The polarization values were plotted against the concentration of the test compound. […] As a control, a competition curve for R1881 (methyltrienolone) was performed for each assay. Curve Fitting was performed using GraphPad Prism® software from GraphPad™ Software Inc. Binding data are reported as a single determination if the experiment was run once only and as the average of experiments if the binding experiment was performed two or more times with that compound.
Where multiple data points have been taken, the value reported is the average of the multiple determinations.
A general note: In fluorescence polarisation assays a small probe gives low polarisation when free and higher when bound to something large.
The compound `Cc1c(NC(c2nnc(-c3ccccc3)o2)C(O)c2ccccc2)ccc(C#N)c1Cl` (racemic) [Example 38, DL-Threo-2-chloro-4-(2-hydroxy-2-phenyl-1-(5-phenyl-1,3,4-oxadiazol-2-yl)ethylamino)-3-methylbenzonitrile] had an IC50 of 60 nM.
On the same count and under the same terms, then `COc1ccc(-c2nnc([C@H](Nc3ccc(C#N)c(Cl)c3C)[C@H](C)O)o2)cc1` [Example 2, 2-chloro-4-((1R,2S)-2-hydroxy-1-(5-(4-methoxyphenyl)-1,3,4-oxadiazol-2-yl)propylamino)-3-methylbenzonitrile], with 5 nM; and `Cc1c(N[C@@H](c2nnc(-c3ccc(Cl)cc3)o2)[C@H](C)O)ccc(C#N)c1Cl` [Example 4, 2-chloro-4-((1R,2S)-1-(5-(4-chlorophenyl)-1,3,4-oxadiazol-2-yl)-2-hydroxypropylamino)-3-methylbenzonitrile], with 11 nM.
The same measure, in the same setting: the same measure for `Cc1c(N[C@@H](c2nnc(-c3ccc(F)cc3)o2)[C@H](C)O)ccc(C#N)c1Cl` [Example 5, 2-Chloro-4-((1R,2S)-1-(5-(4-fluorophenyl)-1,3,4-oxadiazol-2-yl)-2-hydroxypropylamino)-3-methylbenzonitrile]: 50 nM; for `COc1cccc(-c2nnc([C@H](Nc3ccc(C#N)c(Cl)c3C)[C@H](C)O)o2)c1` [Example 6, 2-chloro-4-((1R,2S)-2-hydroxy-1-(5-(3-methoxyphenyl)-1,3,4-oxadiazol-2-yl)propylamino)-3-methylbenzonitrile]: 16 nM.
On to `Cc1c(N[C@@H](c2nnc(-c3cccc(O)c3)o2)[C@H](C)O)ccc(C#N)c1Cl` [Example 7, 2-chloro-4-((1R,2S)-2-hydroxy-1-(5-(3-hydroxyphenyl)-1,3,4-oxadiazol-2-yl)propylamino)-3-methylbenzonitrile], for which the concentration for half-maximal inhibition (IC50) came to 0.4 nM.
The compound `Cc1c(N[C@@H](c2nnc(-c3ccc(O)cc3)o2)[C@H](C)O)ccc(C#N)c1Cl` [Example 8, 2-chloro-4-((1R,2S)-2-hydroxy-1-(5-(4-hydroxyphenyl)-1,3,4-oxadiazol-2-yl)propylamino)-3-methylbenzonitrile] displayed an IC50 of 15 nM.
The same measure, in the same setting: then `Cc1c(N[C@@H](c2nnc(-c3cccc(O)c3)o2)[C@@H](C)O)ccc(C#N)c1Cl` [Example 9, 2-chloro-4-((1R,2R)-2-hydroxy-1-(5-(3-hydroxyphenyl)-1,3,4-oxadiazol-2-yl)propylamino)-3-methylbenzonitrile], with 10 nM.
The same measure, in the same setting: then `Cc1c(N[C@@H](c2nnc(-c3ccc(O)cc3)o2)[C@@H](C)O)ccc(C#N)c1Cl` [Example 10, 2-chloro-4-((1R,2R)-2-hydroxy-1-(5-(4-hydroxyphenyl)-1,3,4-oxadiazol-2-yl)propylamino)-3-methylbenzonitrile], with 15 nM; and `CCc1c(N[C@@H](c2nnc(-c3ccccc3)o2)[C@H](C)O)ccc(C#N)c1Cl` [Example 11, 2-chloro-3-ethyl-4-((1R,2S)-2-hydroxy-1-(5-phenyl-1,3,4-oxadiazol-2-yl)propylamino)benzonitrile], with 12 nM; and `C[C@H](O)[C@@H](Nc1ccc(C#N)c2ccccc12)c1nnc(-c2ccccc2)o1` [Example 13, 4-((1R,2S)-2-hydroxy-1-(5-phenyl-1,3,4-oxadiazol-2-yl)propylamino)-1-naphthonitrile], with 5 nM.
In the case of `Cc1c(N[C@@H](c2nnc(-c3ccc(Cl)cc3)o2)C(C)(C)O)ccc(C#N)c1Cl` [Example 15, (R)-2-chloro-4-(1-(5-(4-chlorophenyl)-1,3,4-oxadiazol-2-yl)-2-hydroxy-2-methylpropylamino)-3-methylbenzonitrile], the IC50 is 0.5 nM.
The same measure, in the same setting: the same measure for `C[C@H](O)[C@@H](Nc1ccc(C#N)c(C(F)(F)F)c1)c1nnc(-c2ccccc2)o1` [Example 16, 4-((1R,2S)-2-hydroxy-1-(5-phenyl-1,3,4-oxadiazol-2-yl)propylamino)-2-(trifluoromethyl)benzonitrile]: 35 nM; for `Cc1c(N[C@H](CO)c2nnc(-c3ccccc3)o2)ccc(C#N)c1Cl` [Example 17, (R)-2-chloro-4-(2-hydroxy-1-(5-phenyl-1,3,4-oxadiazol-2-yl)ethylamino)-3-methylbenzonitrile]: 10 nM; for `Cc1c(N[C@@H](c2nc(-c3ccccc3)no2)[C@@H](C)O)ccc(C#N)c1Cl` [Example 18, 2-chloro-4-((1R,2R)-2-hydroxy-1-(3-phenyl-1,2,4-oxadiazol-5-yl)propylamino)-3-methylbenzonitrile]: 60 nM.
The same measure, in the same setting: the same measure for `Cc1c(N[C@@H](c2nnc(-c3ccc(F)cc3)o2)[C@@H](C)O)ccc(C#N)c1Cl` [Example 19, 2-chloro-4-((1R,2R)-1-(5-(4-fluorophenyl)-1,3,4-oxadiazol-2-yl)-2-hydroxypropylamino)-3-methylbenzonitrile]: 19 nM.
Still for that read-out and setting: then `Cc1c(N[C@@H](c2nnc(-c3ccc(Cl)cc3)o2)[C@@H](C)O)ccc(C#N)c1Cl` [Example 20, 2-Chloro-4-((1R,2R)-1-(5-(4-chlorophenyl)-1,3,4-oxadiazol-2-yl)-2-hydroxypropylamino)-3-methylbenzonitrile], with 15 nM.
Consider `Cc1c(N[C@@H](c2nnc(-c3cccc(Cl)c3)o2)[C@H](C)O)ccc(C#N)c1Cl` [Example 21, 2-chloro-4-((1R,2S)-1-(5-(3-chlorophenyl)-1,3,4-oxadiazol-2-yl)-2-hydroxypropylamino)-3-methylbenzonitrile], for which the IC50 was found to be 3 nM.
In turn, `Cc1c(N[C@@H](c2nnc(-c3ccc(C#N)cc3)o2)[C@H](C)O)ccc(C#N)c1Cl` [Example 22, 2-chloro-4-((1R,2S)-1-(5-(4-cyanophenyl)-1,3,4-oxadiazol-2-yl)-2-hydroxypropylamino)-3-methylbenzonitrile] displayed an IC50 of 2 nM.
For `Cc1c(N[C@@H](c2nnc(-c3ccc(C#N)cc3)o2)[C@@H](C)O)ccc(C#N)c1Cl` [Example 23, 2-chloro-4-((1R,2R)-1-(5-(4-cyanophenyl)-1,3,4-oxadiazol-2-yl)-2-hydroxypropylamino)-3-methylbenzonitrile], the IC50 came to 0.7 nM.
Still for that read-out and setting: the same measure for `Cc1c(N[C@@H](c2nnc(-c3ccc(S(C)(=O)=O)cc3)o2)[C@H](C)O)ccc(C#N)c1Cl` [Example 24, 2-chloro-4-((1R,2S)-2-hydroxy-1-(5-(4-(methylsulfonyl)phenyl)-1,3,4-oxadiazol-2-yl)propylamino)-3-methylbenzonitrile]: 200 nM.
On the same count and under the same terms, the same measure for `Cc1c(N[C@@H](c2nnc(-c3ccc(S(C)(=O)=O)cc3)o2)[C@@H](C)O)ccc(C#N)c1Cl` [Example 25, 2-chloro-4-((1R,2R)-2-hydroxy-1-(5-(4-(methylsulfonyl)phenyl)-1,3,4-oxadiazol-2-yl)propylamino)-3-methylbenzonitrile]: 258 nM; for `Cc1c(N[C@@H](c2nnc(-c3ccccc3)s2)[C@@H](C)O)ccc(C#N)c1Cl` [Example 26, 2-chloro-4-((1R,2R)-2-hydroxy-1-(5-phenyl-1,3,4-thiadiazol-2-yl)propylamino)-3-methylbenzonitrile]: 10 nM.
The same measure, in the same setting: then `Cc1c(N[C@@H](c2nnc(-c3ccccc3)s2)[C@H](C)O)ccc(C#N)c1Cl` [Example 27, 2-chloro-4-((1R,2S)-2-hydroxy-1-(5-phenyl-1,3,4-thiadiazol-2-yl)propylamino)-3-methylbenzonitrile], with 10 nM; and `Cc1c(N[C@@H](c2nnc(-c3ccc(F)cc3)s2)[C@@H](C)O)ccc(C#N)c1Cl` [Example 28, 2-chloro-4-((1R,2R)-1-(5-(4-fluorophenyl)-1,3,4-thiadiazol-2-yl)-2-hydroxypropylamino)-3-methylbenzonitrile], with 16 nM.
`Cc1c(N[C@@H](c2nnc(-c3ccc(O)c(F)c3)o2)[C@H](C)O)ccc(C#N)c1Cl` [Example 29, 2-chloro-4-((1R,2S)-1-(5-(3-fluoro-4-hydroxyphenyl)-1,3,4-oxadiazol-2-yl)-2-hydroxypropylamino)-3-methylbenzonitrile] registered an IC50 of 0.03 nM.
On the same count and under the same terms, then `Cc1c(N[C@@H](c2nnc(-c3ccc(O)c(Cl)c3)o2)[C@@H](C)O)ccc(C#N)c1Cl` [Example 30, 2-Chloro-4-((1R,2R)-1-(5-(3-chloro-4-hydroxyphenyl)-1,3,4-oxadiazol-2-yl)-2-hydroxypropylamino)-3-methylbenzonitrile], with 0.3 nM.

The assay is the same for the next values; noted with them: single determination or average of multiple determinations; read-out: Binding IC50 (AR-Binding Affinity).
Take `C[C@H](O)[C@@H](Nc1ccc(C#N)c(Cl)c1)c1nnc(-c2ccccc2)o1` [Example 12, 2-chloro-4-((1R,2S)-2-hydroxy-1-(5-phenyl-1,3,4-oxadiazol-2-yl)propylamino)benzonitrile]: the IC50 was 300 nM.
In the case of `Cc1c(N[C@@H](c2nnc(-c3ccccc3)o2)C(C)(C)O)ccc(C#N)c1Cl` [Example 14, (R)-2-chloro-4-(2-hydroxy-2-methyl-1-(5-phenyl-1,3,4-oxadiazol-2-yl)propylamino)-3-methylbenzonitrile], the IC50 came to 17 nM.

For the origin of these results see US8455525B2, “Selective androgen receptor modulators” (Radius Health, Inc., priority 2008, dated 2013).
